Data from ChEMBL document CHEMBL1149804, “Bioactivity of novel transition metal complexes of N'-[(4-methoxy)thiobenzoyl]benzoic acid hydrazide” (Eur J Med Chem, 2008).

Legend:
HT-29 = test: Antiproliferative activity against human HT29 cells after 48 hrs by MTT assay; assay type: functional, cell-based; settings: HT-29, 48 h
[1] = Inhibition of human recombinant N-myristoyltransferase

IC50 (HT-29): 0.0909 mM
IC50 [1]: 3.2 mM
SMILES: COc1ccc(C(=S)NNC(=O)c2ccccc2)cc1
